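Growth conditions: 96-well plates. Treatment: test compound, 48 hours, 5 concentrations. Analysis: linear interpolation between bracketing concentrations; unreached endpoints set to highest concentration. GI50 marks 50% less growth.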 Active and inactive are the calls of the source. Rule as the data show it: active = GI50 up to about 1.1 µM and inactive = higher.
Experiments:
Assay in all cases: DTP human tumour cell line panel, 48 h
[1] = system: OVCAR-8
[2] = system: HT-29
[3] = system: OVCAR-5
[4] = system: KM12
[5] = system: SK-MEL-5
[6] = system: CAKI-1
[7] = system: SNB-19
[8] = system: HCC 2998
[9] = system: TK-10
[10] = system: NCI-H522
[11] = system: A549
[12] = system: NCI-H460
[13] = system: SF-268
[14] = system: 786-0
[15] = system: ACHN
[16] = system: UACC-257
[17] = system: UO-31
[18] = system: CCRF-CEM
[19] = system: EKVX

Measured: GI50

Cc1cccc(C2=C/C(=C(\SS/C(C(=O)c3ccc(OCC(=O)O)c(Cl)c3Cl)=C3\C=C(c4cccc(C)c4)SS3)C(=O)c3ccc(OCC(=O)O)c(Cl)c3Cl)SS2)c1
inactive: [1] 11.7 µM | [2] 27.7 µM | [3] 30.4 µM | [4] 23.3 µM | [5] 15.9 µM | [6] 23.1 µM | [7] 10.9 µM | [8] 31 µM | [9] 27.9 µM | [10] 2.12 µM | [11] 28.8 µM | [12] 27.2 µM | [13] 10.8 µM | [14] 20 µM | [15] 12.4 µM | [16] 34.4 µM | [17] 13 µM | [18] 4.71 µM | [19] 56.5 µM

O=C(Nc1cccc(O)c1)C(=O)C(C(=O)c1ccc(Cl)c(Cl)c1)C1OC(=O)c2ccccc21 (stereo unspecified)
inactive: [1] 10.7 µM | [2] 27.4 µM | [3] 22 µM | [4] 19.5 µM | [5] 19.7 µM | [6] 27.2 µM | [7] 13.3 µM | [8] 15.5 µM | [9] 23.8 µM | [10] 9.82 µM | [11] 37 µM | [12] 13.2 µM | [13] 10.4 µM | [14] 13.6 µM | [15] 14.6 µM | [16] 20.6 µM | [17] 13.7 µM | [18] 12.5 µM | [19] 18.5 µM

Cc1ccc(NC(=O)C2C3CCC(O3)C2C(=O)O)cc1 (stereo unspecified)
inactive: [1] > 100 µM | [2] > 45 µM | [3] > 100 µM | [4] > 100 µM | [5] > 75 µM | [6] > 100 µM | [7] > 100 µM | [8] 99.1 µM | [9] > 100 µM | [10] 43.6 µM | [11] > 76.2 µM | [12] > 71.4 µM | [13] > 53.2 µM | [14] > 40.6 µM | [15] > 93.5 µM | [16] > 100 µM | [17] > 100 µM | [18] > 44.8 µM | [19] > 94.4 µM

COc1ccc(/C=C/C(C(=O)O)C(=O)O)cc1
inactive: [1] > 100 µM | [2] 78.9 µM | [3] 78.5 µM | [4] 50.7 µM | [5] 76.6 µM | [6] > 100 µM | [7] 70.5 µM | [8] > 100 µM | [9] > 100 µM | [10] 30.8 µM | [11] > 100 µM | [12] > 100 µM | [13] 67.5 µM | [14] > 100 µM | [15] 92 µM | [16] 97.9 µM | [17] 64.3 µM | [18] 26.2 µM | [19] 78.9 µM

Cc1c(C(=O)C/C(=N/NC(=O)C[n+]2ccccc2)C(=O)Nc2ccccc2)[n+]([O-])c2ccccc2[n+]1[O-]
inactive: [1] > 100 µM | [2] > 100 µM | [3] > 100 µM | [4] > 100 µM | [5] > 100 µM | [6] > 100 µM | [7] > 100 µM | [8] > 100 µM | [9] > 100 µM | [10] > 100 µM | [11] > 100 µM | [12] > 100 µM | [13] > 100 µM | [14] > 100 µM | [15] > 100 µM | [16] > 100 µM | [17] > 100 µM | [18] > 100 µM | [19] > 100 µM

Cc1cccc(C)c1NC(=O)CCCC(=O)C(C#N)c1ccc(Cl)cc1 (stereo unspecified)
inactive: [1] > 100 µM | [2] > 100 µM | [3] > 100 µM | [4] > 100 µM | [5] > 100 µM | [6] > 100 µM | [7] > 100 µM | [8] > 100 µM | [9] > 100 µM | [10] > 100 µM | [11] > 100 µM | [12] > 100 µM | [13] > 100 µM | [14] > 100 µM | [15] > 100 µM | [16] > 100 µM | [17] > 100 µM | [18] > 100 µM | [19] > 100 µM

CCC(CO)COC(=O)/C=C/C(=O)OCC(CC)CO (stereo unspecified)
inactive: [1] > 76.2 µM | [2] > 91 µM | [3] > 100 µM | [4] > 100 µM | [5] > 100 µM | [6] > 100 µM | [7] > 100 µM | [8] > 100 µM | [9] > 100 µM | [10] > 61.5 µM | [11] > 100 µM | [12] > 100 µM | [13] > 84.3 µM | [14] > 100 µM | [15] > 100 µM | [16] > 100 µM | [17] > 100 µM | [18] 27.4 µM | [19] > 55.5 µM

C[Si]12OCCCN(CCO1)CCO2
inactive: [1] > 100 µM | [2] > 100 µM | [3] > 100 µM | [4] > 100 µM | [5] > 100 µM | [6] > 100 µM | [7] > 100 µM | [8] > 100 µM | [9] > 100 µM | [10] > 100 µM | [11] > 100 µM | [12] > 100 µM | [13] > 100 µM | [14] > 100 µM | [15] > 100 µM | [16] > 100 µM | [17] > 100 µM | [18] > 100 µM | [19] > 100 µM

N#Cc1ccc(Nc2cnc3ccc(N)cc3n2)cc1
inactive: [1] > 100 µM | [2] > 100 µM | [3] > 100 µM | [4] > 100 µM | [5] > 100 µM | [6] > 100 µM | [7] > 100 µM | [8] > 100 µM | [9] > 100 µM | [10] > 100 µM | [11] > 100 µM | [12] > 100 µM | [13] > 100 µM | [14] > 100 µM | [15] > 100 µM | [16] > 100 µM | [17] > 100 µM | [18] > 100 µM | [19] > 100 µM

COc1c(OC)c(N)c2cc(C)c(=O)c(C)cc2c1N
inactive: [1] > 100 µM | [2] > 100 µM | [3] > 100 µM | [4] > 100 µM | [5] > 100 µM | [6] > 100 µM | [7] > 100 µM | [8] > 100 µM | [9] > 100 µM | [10] 96.8 µM | [11] > 100 µM | [12] > 100 µM | [13] > 100 µM | [14] 64.7 µM | [15] > 100 µM | [16] > 100 µM | [17] > 100 µM | [18] 41.9 µM | [19] > 100 µM

COc1c(OC2OC(CO)C(O)C(O)C2O)cc2c(c1OC)-c1ccc(OC)c(=O)cc1C(NC(C)=O)CC2 (stereo unspecified)
inactive: [1] > 100 µM | [2] > 100 µM | [3] > 100 µM | [4] > 100 µM | [5] 35.4 µM | [6] > 100 µM | [7] > 100 µM | [8] > 100 µM | [9] > 100 µM | [10] > 100 µM | [11] > 100 µM | [12] > 100 µM | [13] > 100 µM | [14] > 100 µM | [15] > 100 µM | [16] > 100 µM | [17] > 100 µM | [18] > 100 µM | [19] > 100 µM

CCOC(=O)c1c(C)[nH]c2c1c(CN(C)C)c(O)c1nc(C)c(C)nc12
inactive: [1] 21.4 µM | [2] 21.6 µM | [3] 28.4 µM | [4] 28.2 µM | [5] 15 µM | [6] 28.4 µM | [7] 31.1 µM | [8] 21.4 µM | [9] 24.2 µM | [10] 16.3 µM | [11] 22.4 µM | [12] 18.4 µM | [13] 27.3 µM | [14] 16.1 µM | [15] 20.5 µM | [16] 23.5 µM | [17] 29.5 µM | [18] 10.8 µM | [19] 27.3 µM

Cn1cnc([N+](=O)[O-])c1Sc1nnnn1-c1ccccc1
inactive: [1] 13.8 µM | [2] 15.7 µM | [3] 17.8 µM | [4] 17.4 µM | [5] 16.1 µM | [6] 15.9 µM | [7] 33.2 µM | [8] 18.5 µM | [9] 17.9 µM | [10] 2.34 µM | [11] 23.9 µM | [12] 16.5 µM | [13] 19.5 µM | [14] 16.7 µM | [15] 13.9 µM | [16] 13.7 µM | [17] 13.7 µM | [18] 2.39 µM | [19] 16 µM

CCCCCC(=O)N[C@H]1CCc2cc(O)c(O)c(O)c2-c2ccc(SC)c(=O)cc21
inactive: [1] 26.1 µM | [2] 32.7 µM | [3] > 100 µM | [4] 39.6 µM | [5] 28.4 µM | [6] 28.3 µM | [7] 43.3 µM | [8] 32.9 µM | [9] > 100 µM | [10] 15.1 µM | [11] 36.7 µM | [12] 38.4 µM | [13] 38.7 µM | [14] 44.5 µM | [15] > 100 µM | [16] 37.5 µM | [17] > 77.6 µM | [18] 23.2 µM | [19] > 63.1 µM
